# Source: patent US20200352163A1, “ANTIMICROBIAL MIXTURE CONTAINING 4-(3-ETHOXY-4-HYDROXYPHENYL)BUTAN-2-ONE AND AN AROMATIC ALCOHOL, AND COSMETIC COMPOSITION CONTAINING SAME” (L'OREAL, priority 2017, published 2020)
# What was measured:
# Assay in all cases: MIC / FIC synergy test in 96-well microplate, optical density at 620 nm
# Assay type in all cases: cell-based
# Settings in all cases: for microbial growth percentage: weight %
# [1] = test system: Candida albicans ATCC 10231
# Text: (§1) FIC Index=(MIC of A with B/MIC of A)+(MIC of B with A/MIC of B)
# (§2) with: • MIC of A with B: minimum concentration of product A in the combination A+B which makes it possible to obtain an inhibitory effect; • MIC of B with A: minimum concentration of product B in the combination A+B which makes it possible to obtain an inhibitory effect; • MIC of A: minimum inhibitory concentration of product A alone; • MIC of B: minimum inhibitory concentration of product B alone.
# (§3) As regards the combinations tested, MIC of A with B and MIC of B with A are the respective concentrations of A and of B in the combinations which make it possible to obtain a microbial growth percentage of less than or equal to 20%.
# (§4) When the FIC index value is less than or equal to 1, it is considered that the combination of test compounds has a synergistic effect.
# The microbial strain Candida albicans ATCC 10231 and a double-concentration Sabouraud broth liquid culture medium were used.
# (§5) A 96-well microplate and an incubation temprature of 32.5° C. are used.
# (§6) The incubation time of the microplate is: • from 18 to 24 h under aerobic conditions for Candida albicans ATCC 10231, Pseudomonas aeruginosa ATCC 9027 and Staphylococcus aureus ATCC 6538; • from 24 to 30 h under aerobic conditions for microbial Aspergillus niger ATCC 6275; • from 24 to 48 h under aerobic conditions for Enterococcus faecalis ATCC 33186.
# (§7) A 10% (weight/volume) stock solution was prepared by mixing 1 g of compound in 9 ml of aqueous 1‰ agar solution. Successive dilutions were made with the 1‰ agar solution.
# (§8) 50 μl of each of the daughter solutions obtained containing compound A or B are added to the microplate wells. 100 μl of Sabouraud liquid nutrient broth inoculated at double concentration with the Aspergillus niger strain and 50 μl of aqueous 1‰ agar solution are also added thereto.
# (§9) 50 μl of each of the daughter solutions obtained containing compound A and 50 μl of each of the daughter solutions obtained containing compound B are added to the microplate wells. 100 μl of Sabouraud liquid nutrient broth inoculated at double concentration with the strain Aspergillus niger are also added thereto.
# (§10) A positive microbial growth control was also prepared. The positive microbial growth control corresponds to a mixture of 100 μl of aqueous 1‰ agar solution with 100 μl of Sabouraud liquid nutrient broth inoculated at double concentration with the strain Aspergillus niger in the absence of compounds A and B.
# (§11) An absorbance control was performed in parallel on compounds A and B alone. This control corresponds to 100 μl of double concentration sterile Sabouraud liquid nutrient broth+100 μl of double concentration compound A or B.
# (§12) In the three cases (absorbance control, growth control and test), the final volume present in each of the microplate wells is 200 μl.
# (§13) The test as described above (tests, absorbance control and growth control) was performed again to test the combination A+B on the following strains Enterococcus faecalis, Staphylococcus aureus, Pseudomonas aeruginosa, Candida albicans.
# [2] = test system: Enterococcus faecalis ATCC 33186
# Text: as §1, §2, §3, §4
# The microbial strain Enterococcus faecalis ATCC 33186 and a double-concentration BHI (Brain Heart Infusion) broth liquid culture medium were used.
# as §5, §6, §7, §8, §9, §10, §11, §12, §13
# [3] = test system: Staphylococcus aureus ATCC 6538
# Text: as §1, §2, §3, §4
# The microbial strain Staphylococcus aureus ATCC 6538 and a double-concentration nutrient broth liquid culture medium were used.
# as §5, §6, §7, §8, §9, §10, §11, §12, §13
# [4] = test system: Pseudomonas aeruginosa ATCC 9027
# Text: as §1, §2, §3, §4
# The microbial strain Pseudomonas aeruginosa ATCC 9027 and a double-concentration nutrient broth liquid culture medium were used.
# as §5, §6, §7, §8, §9, §10, §11, §12, §13
# [5] = test system: Aspergillus niger ATCC 6275
# Text: as §1, §2, §3, §4
# The microbial strain Aspergillus niger ATCC 6275, and a double-concentration Sabouraud broth liquid culture medium supplemented with polyoxyethylenated (20 OE) sorbitan monopalmitate (Tween 40 from Croda) and Phytagel© BioReagent were used (i.e. a mixture of 5 g of Phytagel+0.6 g Tween 40+60 g of Sabouraud broth).
# as §5, §6, §7, §8, §9, §10, §11, §12
# In the two cases (test and control), the inoculum represents the concentration of the Aspergillus niger strain present in the final volume of the wells (200 μl) and is between 2 and 6×10^5 cfu/ml of Aspergillus niger.
# [6] = first concentration giving growth <= 20%
# [7] = Example 1, first concentration giving growth <= 20%
# [8] = Example 5, first concentration giving growth <= 20%
compound,measurement,setting,value
"OCCOc1ccccc1 [B1, 2-phenoxyethanol]",microbial growth percentage,[1]; 0.0625 B1 alone,44%
same,microbial growth percentage,[1]; 0.125 B1 alone,22%
same,microbial growth percentage,[1]; 0.25 B1 alone,2%
same,% MIC of B1 alone,[1]; [6],0.25%
same,microbial growth percentage,[2]; 0.0625 B1 alone,87%
same,microbial growth percentage,[2]; 0.125 B1 alone,86%
same,microbial growth percentage,[2]; 0.25 B1 alone,84%
same,microbial growth percentage,[2]; 0.5 B1 alone,80%
same,microbial growth percentage,[2]; 1 B1 alone,6%
same,% MIC of B1 alone,[2]; [6],1%
same,microbial growth percentage,[3]; 0.0625 B1 alone,66%
same,microbial growth percentage,[3]; 0.125 B1 alone,73%
same,microbial growth percentage,[3]; 0.25 B1 alone,58%
same,microbial growth percentage,[3]; 0.5 B1 alone,1%
same,% MIC of B1 alone,[3]; [6],0.5%
same,microbial growth percentage,[4]; 0.0625 B1 alone,45%
same,microbial growth percentage,[4]; 0.125 B1 alone,39%
same,microbial growth percentage,[4]; 0.25 B1 alone,39%
same,microbial growth percentage,[4]; 0.5 B1 alone,0%
same,microbial growth percentage,[4]; 1 B1 alone,0%
same,% MIC of B1 alone,[4]; [6],0.5%
same,microbial growth percentage,[5]; 0.0625 B1 alone,95%
same,microbial growth percentage,[5]; 0.125 B1 alone,89%
same,microbial growth percentage,[5]; 0.25 B1 alone,8%
same,% MIC of B1 alone,[5]; [6],0.25%
"CCOc1cc(CCC(C)=O)ccc1O [A, 4-(3-ethoxy-4-hydroxyphenyl)butan-2-one]",microbial growth percentage,"[1]; 0.025 A alone, Example 1",48%
same,microbial growth percentage,"[1]; 0.025 A alone, Example 3",85%
same,microbial growth percentage,"[1]; 0.025 A alone, Example 6",69%
same,microbial growth percentage,"[1]; 0.05 A alone, Example 1",29%
same,microbial growth percentage,"[1]; 0.05 A alone, Example 3",64%
same,microbial growth percentage,"[1]; 0.05 A alone, Example 6",63%
same,microbial growth percentage,"[1]; 0.1 A alone, Example 1",16%
same,microbial growth percentage,"[1]; 0.1 A alone, Example 3",25%
same,microbial growth percentage,"[1]; 0.1 A alone, Example 6",38%
same,microbial growth percentage,"[1]; 0.2 A alone, Example 3",3%
same,microbial growth percentage,"[1]; 0.2 A alone, Example 6",4%
same,% MIC A,"[1]; A alone, Example 3, first concentration giving growth <= 20%",0.2%
same,% MIC of A alone,[1]; [7],0.1%
same,% MIC of A alone,"[1]; Example 6, first concentration giving growth <= 20%",0.2%
same,microbial growth percentage,"[2]; 0.0625 A alone, Example 1",82%
same,microbial growth percentage,"[2]; 0.0625 A alone, Example 5",78%
same,microbial growth percentage,"[2]; 0.0625 A alone, Example 6",42%
same,microbial growth percentage,"[2]; 0.125 A alone, Example 1",89%
same,microbial growth percentage,"[2]; 0.125 A alone, Example 5",86%
same,microbial growth percentage,"[2]; 0.125 A alone, Example 6",42%
same,microbial growth percentage,"[2]; 0.25 A alone, Example 1",89%
same,microbial growth percentage,"[2]; 0.25 A alone, Example 5",92%
same,microbial growth percentage,"[2]; 0.25 A alone, Example 6",33%
same,microbial growth percentage,"[2]; 0.5 A alone, Example 1",75%
same,microbial growth percentage,"[2]; 0.5 A alone, Example 5",72%
same,microbial growth percentage,"[2]; 0.5 A alone, Example 6",34%
same,microbial growth percentage,"[2]; 1 A alone, Example 1",13%
same,microbial growth percentage,"[2]; 1 A alone, Example 5",4%
same,microbial growth percentage,"[2]; 1 A alone, Example 6",24%
same,% MIC of A alone,[2]; [7],1%
same,% MIC of A alone,[2]; [8],1%
same,% MIC of A alone,[2]; Example 6,1%
same,microbial growth percentage,[3]; 0.0625 A alone,71%
same,microbial growth percentage,[3]; 0.125 A alone,57%
same,microbial growth percentage,[3]; 0.25 A alone,52%
same,microbial growth percentage,[3]; 0.5 A alone,1%
same,% MIC of A alone,[3]; [6],0.5%
same,microbial growth percentage,[4]; 0.0625 A alone,49%
same,microbial growth percentage,[4]; 0.125 A alone,82%
same,microbial growth percentage,[4]; 0.25 A alone,116%
same,microbial growth percentage,[4]; 0.5 A alone,67%
same,microbial growth percentage,[4]; 1 A alone,−4%
same,% MIC of A alone,[4]; [6],1%
same,microbial growth percentage,"[5]; 0.0625 A alone, Example 1",85%
same,microbial growth percentage,"[5]; 0.0625 A alone, Example 5",86%
same,microbial growth percentage,"[5]; 0.125 A alone, Example 1",47%
same,microbial growth percentage,"[5]; 0.125 A alone, Example 5",41%
same,microbial growth percentage,"[5]; 0.25 A alone, Example 1",7%
same,microbial growth percentage,"[5]; 0.25 A alone, Example 5",6%
same,% MIC of A alone,[5]; [7],0.25%
same,% MIC of A alone,[5]; [8],0.25%
"Cc1cc(O)ccc1C(C)C [B4, 4-isopropyl-3-methylphenol]",microbial growth percentage,[1]; 0.0025 B4 alone,87%
same,microbial growth percentage,[1]; 0.005 B4 alone,82%
same,microbial growth percentage,[1]; 0.01 B4 alone,73%
same,microbial growth percentage,[1]; 0.02 B4 alone,35%
same,microbial growth percentage,[1]; 0.04 B4 alone,1%
same,% MIC of B4 alone,[1]; [6],0.04%
same,% MIC of B4 alone,[2],0.1%
same,microbial growth percentage,[2]; 0.0125 B4 alone,45%
same,microbial growth percentage,[2]; 0.025 B4 alone,44%
same,microbial growth percentage,[2]; 0.05 B4 alone,27%
same,microbial growth percentage,[2]; 0.1 B4 alone,23%
"OCc1ccccc1 [B3, benzyl alcohol]",microbial growth percentage,[2]; 0.25 B3 alone,77%
same,microbial growth percentage,[2]; 0.5 B3 alone,30%
same,microbial growth percentage,[2]; 1 B3 alone,3%
same,% MIC of B3 alone,[2]; [6],1%
same,microbial growth percentage,[5]; 0.0125 B3 alone,94%
same,microbial growth percentage,[5]; 0.25 B3 alone,31%
same,microbial growth percentage,[5]; 0.5 B3 alone,1%
same,% MIC of B3 alone,[5]; [6],0.5%
"OCCc1ccccc1 [B2, phenylethyl alcohol]",microbial growth percentage,[1]; 0.125 B2 alone,41%
same,microbial growth percentage,[1]; 0.25 B2 alone,7%
same,MIC B2,"[1]; B2 alone, first concentration giving growth <= 20%",0.25%
